Results on 8 compounds are retold here after PubChem BioAssay AID256 (DTP/NCI, 2004).

“And” between values parts separate entries of the source, which are not always exact repeats. Equal values may be shown once. Toxic doses and inconclusive results are not listed.

For the test, the system named is CD2F1 mice, L1210 leukemia ip, survival T/C. Put plainly: NCI In Vivo Anticancer Drug Screen. Data for tumor model L1210 Leukemia (intraperitoneal) in CD2F1 (CDF1) mice. Particulars: higher = longer survival. Put shortly:
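Activity against a transplanted murine tumor was judged by comparing the compound group with a vehicle group. The outcome in the treated animals was divided by that in the controls.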

The mark [1] stands for this setting: endpoint: mean survival time, dose: 50.0 mg/kg/injection, schedule: Q04DX003 (ip), vehicle: saline.

Turning to `[N-]=[N+]=CC(=O)CCC(N)C(=O)O` (stereo unspecified), the T/C by setting is: (endpoint: mean survival time, dose: 0.03 mg/kg/injection, schedule: Q01DX009 (ip), vehicle: saline) 119 % of control; (endpoint: mean survival time, dose: 0.05 mg/kg/injection, schedule: Q01DX009 (ip), vehicle: saline) 116 % of control; (endpoint: mean survival time, dose: 0.05 mg/kg/injection, schedule: Q01DX009 (oral), vehicle: saline) 107 % of control; (endpoint: mean survival time, dose: 0.05 mg/kg/injection, schedule: Q01DX009 (sc), vehicle: saline) 117 % of control; (endpoint: mean survival time, dose: 0.1 mg/kg/injection, schedule: Q03DX003 (ip), vehicle: saline) 115 % of control; (endpoint: mean survival time, dose: 0.1 mg/kg/injection, schedule: Q04DX003 (ip), vehicle: saline) 117 % of control. Besides, the T/C is 116 % of control (endpoint: mean survival time, dose: 0.2 mg/kg/injection, schedule: Q01DX009 (oral), vehicle: saline); 118 % of control (endpoint: mean survival time, dose: 0.2 mg/kg/injection, schedule: Q03DX003 (ip), vehicle: saline); 123 % of control (endpoint: mean survival time, dose: 0.2 mg/kg/injection, schedule: Q04DX003 (ip), vehicle: saline); 162 % of control (endpoint: mean survival time, dose: 0.4 mg/kg/injection, schedule: Q03HX024 (ip), vehicle: saline); 90 % of control (endpoint: mean survival time, dose: 0.8 mg/kg/injection, schedule: Q01DX009 (sc), vehicle: saline); 102 % of control (endpoint: mean survival time, dose: 0.8 mg/kg/injection, schedule: Q03HX024 (ip), vehicle: saline). Further, the T/C reads like this: (endpoint: mean survival time, dose: 1.6 mg/kg/injection, schedule: Q03HX024 (ip), vehicle: saline) 105 % of control; (endpoint: mean survival time, dose: 3.1 mg/kg/injection, schedule: Q03HX016 (ip), vehicle: saline) 119 % of control; (endpoint: mean survival time, dose: 6.25 mg/kg/injection, schedule: Q03HX008 (ip), vehicle: saline) 118 % of control; (endpoint: mean survival time, dose: 6.25 mg/kg/injection, schedule: Q04DX003 (ip), vehicle: saline) 156 % of control; (endpoint: mean survival time, dose: 25.0 mg/kg/injection, schedule: Q04DX003 (ip), vehicle: saline) 155 % of control; (endpoint: mean survival time, dose: 25.0 mg/kg/injection, schedule: Q08DX002 (ip), vehicle: saline) 150 % of control. The T/C is, setting by setting: (endpoint: mean survival time, dose: 50.0 mg/kg/injection, schedule: Q01DX001 (ip), vehicle: saline) 151 % of control; under setting [1], 122 % of control; (endpoint: mean survival time, dose: 50.0 mg/kg/injection, schedule: Q08DX002 (ip), vehicle: saline) 162 % of control; (endpoint: mean survival time, dose: 100.0 mg/kg/injection, schedule: Q01DX001 (ip), vehicle: saline) 151 % of control; (endpoint: mean survival time, dose: 100.0 mg/kg/injection, schedule: Q01DX001 (oral), vehicle: saline) 115 % of control; (endpoint: mean survival time, dose: 100.0 mg/kg/injection, schedule: Q08DX002 (ip), vehicle: saline) 155 % of control. The T/C was 88 % of control (endpoint: mean survival time, dose: 200.0 mg/kg/injection, schedule: Q01DX001 (oral), vehicle: saline); 110 % of control (endpoint: mean survival time, dose: 200.0 mg/kg/injection, schedule: Q01DX001 (sc), vehicle: saline); 96 % of control (endpoint: mean survival time, dose: 13.0 micrograms/kg/injection, schedule: Q01DX Z (ip), vehicle: saline); 94 % of control (endpoint: mean survival time, dose: 25.0 micrograms/kg/injection, schedule: Q01DX Z (ip), vehicle: saline); 100 % of control (endpoint: mean survival time, dose: 50.0 micrograms/kg/injection, schedule: Q01DX Z (ip), vehicle: saline); 124 % of control (endpoint: mean survival time, dose: 93.7 micrograms/kg/injection, schedule: Q01DX009 (ip), vehicle: saline). Besides, the T/C is, setting by setting: (endpoint: median survival time, dose: 0.06 mg/kg/injection, schedule: Q01DX009 (ip), vehicle: saline) 119 % of control; (endpoint: median survival time, dose: 0.25 mg/kg/injection, schedule: Q01DX009 (ip), vehicle: saline) 118 % of control; (endpoint: median survival time, dose: 0.39 mg/kg/injection, schedule: Q01DX009 (ip), vehicle: saline) 98 % of control; (endpoint: median survival time, dose: 0.5 mg/kg/injection, schedule: Q01DX009 (ip), vehicle: saline) 102 % of control; (endpoint: median survival time, dose: 0.8 mg/kg/injection, schedule: Q01DX009 (ip), vehicle: saline) 94 % of control and 98 % of control; (endpoint: median survival time, dose: 2.5 mg/kg/injection, schedule: Q04DX003 (ip), vehicle: saline) 152 % of control. For the same compound, the T/C is 153 % of control and 163 % of control (endpoint: median survival time, dose: 5.0 mg/kg/injection, schedule: Q04DX003 (ip), vehicle: saline); 167 % of control and 173 % of control (endpoint: median survival time, dose: 10.0 mg/kg/injection, schedule: Q04DX003 (ip), vehicle: saline); 184 % of control and 189 % of control (endpoint: median survival time, dose: 20.0 mg/kg/injection, schedule: Q04DX003 (ip), vehicle: saline); 195 % of control and 205 % of control (endpoint: median survival time, dose: 40.0 mg/kg/injection, schedule: Q04DX003 (ip), vehicle: saline); 114 % of control (endpoint: median survival time, dose: 100.0 mg/kg/injection, schedule: Q01DX001 (ip), vehicle: saline).

In the case of `COc1nc(OC)c2ccn(C3CC(O)C(CO)O3)c2n1` (stereo unspecified), the T/C by setting is: (endpoint: median survival time, dose: 12.5 mg/kg/injection, schedule: Q01DX005 (ip), vehicle: saline) 106 % of control; (endpoint: median survival time, dose: 25.0 mg/kg/injection, schedule: Q01DX005 (ip), vehicle: saline) 103 % of control; (endpoint: median survival time, dose: 50.0 mg/kg/injection, schedule: Q01DX005 (ip), vehicle: saline) 102 % of control; (endpoint: median survival time, dose: 100.0 mg/kg/injection, schedule: Q01DX005 (ip), vehicle: saline) 93 % of control; (endpoint: median survival time, dose: 200.0 mg/kg/injection, schedule: Q01DX005 (ip), vehicle: saline) 98 % of control.

As to `O=C1OC(c2ccccc2)CC1N1CCCCC1` (stereo unspecified), the T/C (endpoint: mean survival time, dose: 6.25 mg/kg/injection, schedule: Q01DX009 (ip), vehicle: saline sonified) is 92 % of control; the T/C (endpoint: mean survival time, dose: 12.5 mg/kg/injection, schedule: Q01DX009 (ip), vehicle: saline sonified) is 101 % of control; the T/C (endpoint: mean survival time, dose: 25.0 mg/kg/injection, schedule: Q01DX009 (ip), vehicle: saline sonified) is 105 % of control.

For `OCC1OC(n2cnc3c(=S)nc(NO)[nH]c32)C(O)C1O` (stereo unspecified), the T/C by setting is: (endpoint: mean survival time, dose: 6.25 mg/kg/injection, schedule: Q01DX005 (ip), vehicle: saline with Tween-80) 196 % of control and 237 % of control; (endpoint: mean survival time, dose: 12.5 mg/kg/injection, schedule: Q01DX005 (ip), vehicle: saline with Tween-80) 164 % of control and 263 % of control; (endpoint: mean survival time, dose: 25.0 mg/kg/injection, schedule: Q01DX005 (ip), vehicle: saline with Tween-80) 102 % of control; (endpoint: mean survival time, dose: 50.0 mg/kg/injection, schedule: Q01DX005 (ip), vehicle: saline with Tween-80) 89 % of control.

With `S=C(N/N=C1\C=Cc2ccccc2C1)N/N=C1\C=Cc2ccccc2C1`, the T/C under setting [1] was 87 % of control; the T/C (endpoint: mean survival time, dose: 100.0 mg/kg/injection, schedule: Q04DX003 (ip), vehicle: saline) was 93 % of control; the T/C (endpoint: mean survival time, dose: 200.0 mg/kg/injection, schedule: Q04DX003 (ip), vehicle: saline) is 93 % of control.

Regarding `O=C1c2ccccc2C(=O)c2c(Sc3ccccc3)cccc21`, the T/C was 97 % of control (endpoint: mean survival time, dose: 100.0 mg/kg/injection, schedule: Q01DX009 (ip), vehicle: saline with Tween-80); 93 % of control (endpoint: mean survival time, dose: 200.0 mg/kg/injection, schedule: Q01DX009 (ip), vehicle: saline with Tween-80); 92 % of control (endpoint: mean survival time, dose: 400.0 mg/kg/injection, schedule: Q01DX009 (ip), vehicle: saline with Tween-80).

Turning to `Clc1ncnc2c1ncn2CCCn1cnc2c(Cl)ncnc21`, the T/C reads like this: (endpoint: mean survival time, dose: 12.5 mg/kg/injection, schedule: Q01DX009 (ip), vehicle: Klucel (hydroxypropylcellulose) (HPC)) 94 % of control; (endpoint: mean survival time, dose: 25.0 mg/kg/injection, schedule: Q01DX009 (ip), vehicle: Klucel (hydroxypropylcellulose) (HPC)) 90 % of control; (endpoint: mean survival time, dose: 50.0 mg/kg/injection, schedule: Q01DX009 (ip), vehicle: Klucel (hydroxypropylcellulose) (HPC)) 94 % of control; (endpoint: mean survival time, dose: 100.0 mg/kg/injection, schedule: Q01DX009 (ip), vehicle: Klucel (hydroxypropylcellulose) (HPC)) 103 % of control; (endpoint: mean survival time, dose: 200.0 mg/kg/injection, schedule: Q01DX009 (ip), vehicle: Klucel (hydroxypropylcellulose) (HPC)) 101 % of control.

Regarding `CCCCCCOc1ccc(N=Cc2ccc(N(C)C)cc2)cc1`, the T/C reads like this: (endpoint: mean survival time, dose: 75.0 mg/kg/injection, schedule: Q01DX001 (ip), vehicle: other) 93 % of control; (endpoint: mean survival time, dose: 150.0 mg/kg/injection, schedule: Q01DX001 (ip), vehicle: other) 94 % of control.
